# Assay results from PubChem BioAssay AID1259407 (Chemical Carcinogenesis Research Information System (CCRIS), 2018).
# Activity calls are given as the source filed them. The rule behind the calls is not given here.
# Test system: CCRIS mutagenicity, Ames/micronucleus/aberration tests
# Experiment: CCRIS mutagenicity studies
# [1] = Test System: AMES SALMONELLA TYPHIMURIUM, Strain/Indicator: TA97, Metabolic Activation: NONE, Method: PREINCUBATION
# [2] = Test System: AMES SALMONELLA TYPHIMURIUM, Strain/Indicator: TA98, Metabolic Activation: NONE, Method: PREINCUBATION
# [3] = Test System: AMES SALMONELLA TYPHIMURIUM, Strain/Indicator: TA100, Metabolic Activation: NONE, Method: PREINCUBATION
# [4] = Test System: AMES SALMONELLA TYPHIMURIUM, Strain/Indicator: TA1535, Metabolic Activation: NONE, Method: PREINCUBATION
# [5] = Test System: AMES SALMONELLA TYPHIMURIUM, Strain/Indicator: TA98, Metabolic Activation: NONE, Method: STANDARD PLATE
# [6] = Test System: AMES SALMONELLA TYPHIMURIUM, Strain/Indicator: TA100, Metabolic Activation: NONE, Method: STANDARD PLATE
# [7] = Test System: AMES SALMONELLA TYPHIMURIUM, Strain/Indicator: TA1535, Metabolic Activation: NONE, Method: STANDARD PLATE
# [8] = Test System: AMES SALMONELLA TYPHIMURIUM, Strain/Indicator: TA97, Metabolic Activation: HAMSTER, LIVER, S-9, AROCLOR 1254 (10 OR 30%), Method: PREINCUBATION
# [9] = Test System: AMES SALMONELLA TYPHIMURIUM, Strain/Indicator: TA97, Metabolic Activation: RAT, LIVER, S-9, AROCLOR 1254 (10 OR 30%), Method: PREINCUBATION
# [10] = Test System: AMES SALMONELLA TYPHIMURIUM, Strain/Indicator: TA98, Metabolic Activation: HAMSTER, LIVER, S-9, AROCLOR 1254 (10 OR 30%), Method: PREINCUBATION
# [11] = Test System: AMES SALMONELLA TYPHIMURIUM, Strain/Indicator: TA98, Metabolic Activation: RAT, LIVER, S-9, AROCLOR 1254 (10 OR 30%), Method: PREINCUBATION
# [12] = Test System: AMES SALMONELLA TYPHIMURIUM, Strain/Indicator: TA100, Metabolic Activation: HAMSTER, LIVER, S-9, AROCLOR 1254 (10 OR 30%), Method: PREINCUBATION
# [13] = Test System: AMES SALMONELLA TYPHIMURIUM, Strain/Indicator: TA100, Metabolic Activation: RAT, LIVER, S-9, AROCLOR 1254 (10 OR 30%), Method: PREINCUBATION
# [14] = Test System: AMES SALMONELLA TYPHIMURIUM, Strain/Indicator: TA1535, Metabolic Activation: HAMSTER, LIVER, S-9, AROCLOR 1254 (10 OR 30%), Method: PREINCUBATION
# [15] = Test System: AMES SALMONELLA TYPHIMURIUM, Strain/Indicator: TA1535, Metabolic Activation: RAT, LIVER, S-9, AROCLOR 1254 (10 OR 30%), Method: PREINCUBATION
SMILES,mutagenic call [1],mutagenic call [2],mutagenic call [3],mutagenic call [4],mutagenic call [5],mutagenic call [6],mutagenic call [7],mutagenic call [8],mutagenic call [9],mutagenic call [10],mutagenic call [11],mutagenic call [12],mutagenic call [13],mutagenic call [14],mutagenic call [15],further results
OCCCBr,inactive; negative,inactive; negative,active; positive,active; positive,,,,,,,,,,,,"mutagenic call (Test System: AMES SALMONELLA TYPHIMURIUM, Strain/Indicator: TA97, Metabolic Activation: HAMSTER, LIVER, S-9, AROCLOR 1254 (10%), Method: PREINCUBATION): inactive; negative; mutagenic call (Test System: AMES SALMONELLA TYPHIMURIUM, Strain/Indicator: TA97, Metabolic Activation: RAT, LIVER, S-9, AROCLOR 1254 (10%), Method: PREINCUBATION): inactive; negative; mutagenic call (Test System: AMES SALMONELLA TYPHIMURIUM, Strain/Indicator: TA98, Metabolic Activation: HAMSTER, LIVER, S-9, AROCLOR 1254 (10%), Method: PREINCUBATION): inactive; negative; mutagenic call (Test System: AMES SALMONELLA TYPHIMURIUM, Strain/Indicator: TA98, Metabolic Activation: RAT, LIVER, S-9, AROCLOR 1254 (10%), Method: PREINCUBATION): inactive; negative; mutagenic call (Test System: AMES SALMONELLA TYPHIMURIUM, Strain/Indicator: TA100, Metabolic Activation: HAMSTER, LIVER, S-9, AROCLOR 1254 (10%), Method: PREINCUBATION): active; positive; mutagenic call (Test System: AMES SALMONELLA TYPHIMURIUM, Strain/Indicator: TA100, Metabolic Activation: RAT, LIVER, S-9, AROCLOR 1254 (10%), Method: PREINCUBATION): active; positive; mutagenic call (Test System: AMES SALMONELLA TYPHIMURIUM, Strain/Indicator: TA1535, Metabolic Activation: HAMSTER, LIVER, S-9, AROCLOR 1254 (10%), Method: PREINCUBATION): active; positive; mutagenic call (Test System: AMES SALMONELLA TYPHIMURIUM, Strain/Indicator: TA1535, Metabolic Activation: RAT, LIVER, S-9, AROCLOR 1254 (10%), Method: PREINCUBATION): active; positive"
O=C1c2c(O)ccc(O)c2C(=O)c2c(NCCNCCO)ccc(NCCNCCO)c21,,,,,active; positive,inactive; negative,inactive; negative,,,,,,,,,"mutagenic call (Test System: AMES SALMONELLA TYPHIMURIUM, Strain/Indicator: TA97, Metabolic Activation: NONE, Method: STANDARD PLATE): inactive; negative; mutagenic call (Test System: AMES SALMONELLA TYPHIMURIUM, Strain/Indicator: TA97, Metabolic Activation: RAT, LIVER, S-9, PHENOBARBITAL AND ALPHA-NAPHTHOFLAVONE, Method: STANDARD PLATE): inactive; negative; mutagenic call (Test System: AMES SALMONELLA TYPHIMURIUM, Strain/Indicator: TA97A, Metabolic Activation: NONE, Method: STANDARD PLATE): inactive; negative; mutagenic call (Test System: AMES SALMONELLA TYPHIMURIUM, Strain/Indicator: TA98, Metabolic Activation: RAT, LIVER, S-9, PHENOBARBITAL AND ALPHA-NAPHTHOFLAVONE, Method: STANDARD PLATE): active; positive; mutagenic call (Test System: AMES SALMONELLA TYPHIMURIUM, Strain/Indicator: TA100, Metabolic Activation: RAT, LIVER, S-9, PHENOBARBITAL AND ALPHA-NAPHTHOFLAVONE, Method: STANDARD PLATE): inactive; negative; mutagenic call (Test System: AMES SALMONELLA TYPHIMURIUM, Strain/Indicator: TA1535, Metabolic Activation: RAT, LIVER, S-9, PHENOBARBITAL AND ALPHA-NAPHTHOFLAVONE, Method: STANDARD PLATE): inactive; negative; mutagenic call (Test System: AMES SALMONELLA TYPHIMURIUM, Strain/Indicator: TA1538, Metabolic Activation: NONE, Method: STANDARD PLATE): active; positive; mutagenic call (Test System: MOUSE LYMPHOMA, Strain/Indicator: L5178Y (TK+/TK-), Metabolic Activation: NONE, Method: SUSPENSION/PLATE): active; positive; mutagenic call (Test System: MOUSE LYMPHOMA, Strain/Indicator: L5178Y (TK+/TK-), Metabolic Activation: RAT, LIVER, S-9, AROCLOR 1242 AND 1254 (2:1), Method: SUSPENSION/PLATE): active; positive"
COC(=O)CCC(=O)OC,inactive; negative,inactive; negative,inactive; negative,inactive; negative,inactive; negative,inactive; negative,inactive; negative,inactive; negative,inactive; negative,inactive; negative,inactive; negative,inactive; negative,inactive; negative,inactive; negative,inactive; negative,"mutagenic call (Test System: AMES SALMONELLA TYPHIMURIUM, Strain/Indicator: TA98, Metabolic Activation: RAT, LIVER, S-9, AROCLOR 1254, Method: STANDARD PLATE): inactive; negative; mutagenic call (Test System: AMES SALMONELLA TYPHIMURIUM, Strain/Indicator: TA100, Metabolic Activation: RAT, LIVER, S-9, AROCLOR 1254, Method: STANDARD PLATE): inactive; negative; mutagenic call (Test System: AMES SALMONELLA TYPHIMURIUM, Strain/Indicator: TA1535, Metabolic Activation: RAT, LIVER, S-9, AROCLOR 1254, Method: STANDARD PLATE): inactive; negative; mutagenic call (Test System: AMES SALMONELLA TYPHIMURIUM, Strain/Indicator: TA1537, Metabolic Activation: NONE, Method: STANDARD PLATE): inactive; negative; mutagenic call (Test System: AMES SALMONELLA TYPHIMURIUM, Strain/Indicator: TA1537, Metabolic Activation: RAT, LIVER, S-9, AROCLOR 1254, Method: STANDARD PLATE): inactive; negative"
CCC(C(N)=O)(C(N)=O)c1ccccc1,inactive; negative,inactive; negative,inactive; negative,inactive; negative,,,,inactive; negative,inactive; negative,inactive; negative,inactive; negative,inactive; negative,inactive; negative,inactive; negative,inactive; negative,
O=C1OCC(CCl)=C1Br,,,,,,active; positive,,,,,,,,,,
